From patent US20210213104A1, “GLUCAGON AND GLP-1 CO-AGONISTS FOR THE TREATMENT OF CHRONIC KIDNEY DISEASE AND DIABETIC KIDNEY DISEASE IN TYPE 2 DIABETES” (MEDIMMUNE LIMITED, priority 2020, published 2021)
Marks after values point to notes of the source that are not given here.

System: subjects with T2DM and renal impairment
Assay: Phase 2a: continuous glucose monitoring (CGM)
Type: in vivo, human
Conditions: for Percentage of Time CGM Glucose Within Target Range (70-180 mg/dL), Mean / Percentage of Time CGM Glucose Within Target Range (70-180 mg/dL), Median / Time in target range, Change from Baseline (Days −8 to −2), Mean / Time in target range, Change from Baseline (Days −8 to −2), Median / Time in target range, Difference in LS Mean Change (vs Placebo): 300 μg Dose (Days 26 to 32); for Percentage of Time CGM Glucose Within Target Range (70-180 mg/dL), Mean / Percentage of Time CGM Glucose Within Target Range (70-180 mg/dL), Median / Time in target range, Change from Baseline (Days −8 to −2), Mean / Time in target range, Change from Baseline (Days −8 to −2), Median / Time in target range, Difference in LS Mean Change (vs Placebo) / Percentage of time spent in CGM glucose range 70-180 mg/dL during treatment / Percentage of time spent in CGM glucose range >180 mg/dL during treatment: ITT; for Percentage of time spent in CGM glucose range 70-180 mg/dL during treatment / Percentage of time spent in CGM glucose range >180 mg/dL during treatment: entire dosing period
Procedure: Cotadutide was titrated from 50 μg up to 300 μg and administered once daily by subcutaneous (SC) injection over 32 days.
Cotadutide was administered at 50 μg once daily for 4 days, followed by 100 μg daily for 7 days, 200 μg daily for 7 days, and 300 μg daily for 14 days (n=20). Placebo was administered one daily for 32 days (n=20). Cotadutide and placebo were administered in the morning. Dosing commenced following predose baseline vital signs, blood tests (including HbA1c), an electrocardiogram (ECG), body weight measurement, and bioimpedance spectroscopy (BIS). Subjects then returned for daily dosing or remained overnight locally until Day 5, and thereafter, had visits at weekly intervals until a maintenance dose of 300 μg was established. Thus, Cotadutide or placebo was administered at the study site by study personal for the first four doses and on site on Days 5, 12, 19, and 32. At all other times, subjects preformed dosing at home.
A Freestyle Libre® Pro CGM device was used to measure interstitial glucose levels. […] Data generated by CGM was used at visits to adjust insulin doses and other treatments.
The CGM sensor, which is a small plastic circular device of 35 mm diameter and 5 mm depth, was applied to the back of the upper arm. Subjects wore the CGM sensor continuously up until the time of a sensor change, which was to occur within 14 days, and they were advised that they could bathe and shower, and swim in up to 3 m depth for up to 30 minutes while wearing the CGM sensor. When the CGM sensor was removed, a new CGM sensor could be reapplied, ideally close to the original site, but with the subject's site preference taken into account. CGM sensors were single-use only.
If a subject was unable to tolerate wearing the CGM sensor for the entire duration of the study, the sensor was removed; but the subject was to remain in the study with or without continued CGM and could instead be instructed to monitor capillary plasma glucose measurements four times per day (before meals and before bedtime) and record these levels in the diary provided.
Subjects underwent continuous glucose monitoring (CGM) starting from Day −14 to Day 40 (±5 days), with sensor changes within 14-day intervals. CGM readings were used to analyze change in average CGM glucose and glucose AUC7 d, coefficient of variation as a marker of glycemic variability, and time spent in target glucose range and hypoglycemia, to enable comparison across different dose levels.

CCCCCCCCCCCCCCCC(=O)N[C@@H](CCC(=O)NCCCC[C@H](NC(=O)[C@H](CC(=O)O)NC(=O)[C@H](CO)NC(=O)[C@@H](NC(=O)[C@H](Cc1ccccc1)NC(=O)[C@@H](NC(=O)CNC(=O)[C@H](CCC(N)=O)NC(=O)[C@H](CO)NC(=O)[C@@H](N)Cc1c[nH]cn1)[C@@H](C)O)[C@@H](C)O)C(=O)N[C@@H](CO)C(=O)N[C@@H](CCC(=O)O)C(=O)N[C@@H](Cc1ccc(O)cc1)C(=O)N[C@@H](CC(C)C)C(=O)N[C@@H](CC(=O)O)C(=O)N[C@@H](CO)C(=O)N[C@@H](CCC(=O)O)C(=O)N[C@@H](CCCNC(=N)N)C(=O)N[C@@H](C)C(=O)N[C@@H](CCCNC(=N)N)C(=O)N[C@@H](CC(=O)O)C(=O)N[C@@H](Cc1ccccc1)C(=O)N[C@H](C(=O)N[C@@H](C)C(=O)N[C@@H](Cc1c[nH]c2ccccc12)C(=O)N[C@@H](CC(C)C)C(=O)N[C@@H](CCC(=O)O)C(=O)N[C@@H](C)C(=O)NCC(=O)NCC(=O)O)C(C)C)C(=O)O [Cotadutide]
Percentage of Time CGM Glucose Within Target Range (70-180 mg/dL), Mean (Insulin Dose < 20 U/day): 89.31% | Percentage of Time CGM Glucose Within Target Range (70-180 mg/dL), Median (Insulin Dose < 20 U/day): 95.35% | Time in target range, Change from Baseline (Days −8 to −2), Mean (Insulin Dose < 20 U/day): 25.61% | Time in target range, Change from Baseline (Days −8 to −2), Median (Insulin Dose < 20 U/day): 23.18% | Time in target range, Difference in LS Mean Change (vs Placebo) (Insulin Dose < 20 U/day): 56.7% | Time in target range, Difference in LS Mean Change (vs Placebo) (Insulin Dose < 20 U/day, listed as MEDI0382): 56.73% | Percentage of Time CGM Glucose Within Target Range (70-180 mg/dL), Mean (Insulin Dose ≥ 20 U/day): 71.69% | Percentage of Time CGM Glucose Within Target Range (70-180 mg/dL), Median (Insulin Dose ≥ 20 U/day): 83.04% | Time in target range, Change from Baseline (Days −8 to −2), Mean (Insulin Dose ≥ 20 U/day): 8.44% | Time in target range, Change from Baseline (Days −8 to −2), Median (Insulin Dose ≥ 20 U/day): 13.31% | Time in target range, Difference in LS Mean Change (vs Placebo) (Insulin Dose ≥ 20 U/day): 19.6% | Time in target range, Difference in LS Mean Change (vs Placebo) (Insulin Dose ≥ 20 U/day, listed as MEDI0382): 19.59% | Percentage of Time CGM Glucose Within Target Range (70-180 mg/dL), Mean (Total): 78.18% | Percentage of Time CGM Glucose Within Target Range (70-180 mg/dL), Median (Total): 83.51% | Time in target range, Change from Baseline (Days −8 to −2), Mean (Total): 14.50% | Time in target range, Change from Baseline (Days −8 to −2), Median (Total): 18.31% | Time in target range, Difference in LS Mean Change (vs Placebo) (Total): 36.02% | Time in target range, difference in LS mean change as compared to placebo (300 μg [Days 19 to 25], all subjects): 35.23% | mean CGM glucose value (at the 50 μg dose): 133.7 mg/dL | mean CGM glucose value (at the 100 μg dose): 127.6 mg/dL | mean CGM glucose value (at the 200 μg dose): 131.7 mg/dL | mean CGM glucose value (at the 300 μg dose (Days 26 to 32)): 125.4 mg/dL | Total glucose over each dosing period (AUC7 d) from baseline (Days −8 to −2) as compared to placebo (based on LS mean change): significantly decreased | LS mean change in coefficient of variation of glucose vs placebo (baseline to the end of each 7-day dosing period): no statistically significant difference | Percentage of time spent in CGM glucose range 70-180 mg/dL during treatment (Insulin Dose < 20 U/day): 89.85* % | Percentage of time spent in CGM glucose range >180 mg/dL during treatment (Insulin Dose < 20 U/day): 3.31% | Percentage of time spent in CGM glucose range 70-180 mg/dL during treatment (Insulin Dose ≥ 20 U/day): 73.09* % | Percentage of time spent in CGM glucose range >180 mg/dL during treatment (Insulin Dose ≥ 20 U/day): 14.09* % | Percentage of time spent in CGM glucose range 70-180 mg/dL during treatment (Total): 78.67% | Percentage of time spent in CGM glucose range >180 mg/dL during treatment (Total): 10.50% | Percentage of time spent in CGM glucose range 70-180 mg/dL during treatment (Total, listed as MEDI0382): 78.67* % | Percentage of time spent in CGM glucose range >180 mg/dL during treatment (Total, listed as MEDI0382): 10.50* % | percentage of time spent below 54 mg/dL vs Placebo (in vivo): statistically significant greater percentage of time | percentage of time spent below 54 mg/dL vs placebo (in vivo): no clinically significant difference vs placebo | time spent in hypoglycemia (<70 mg/dL) vs placebo, 7-day periods (in vivo): no statistically significant differences | Average glucose levels from baseline to the end of each 7-day dosing period compared to placebo (p ≤0.003, based on LS mean change): significant reductions
